Source: patent publication US20250221987A1, “PIPERAZINO RING-CONTAINING DERIVATIVE, PHARMACEUTICALLY ACCEPTABLE SALT THEREOF, PREPARATION METHOD THEREFOR, AND APPLICATION THEREOF” (ACERAND THERAPEUTICS (HONG KONG) LIMITED, priority 2022, published 2025)
Like-named read-outs stand apart in the source and are kept apart here.

Legend:
[1] = Pharmacokinetic study in ICR (CD-1) mice; assay type: in vivo; conditions: male ICR (CD-1) mice, tail vein 1 mg/kg, oral 3 mg/kg groups, plasma; for half-life: mouse, read-out: Half-life t1/2 (converted)
Procedure: ICR (CD-1) male mice, 3 mice per group. One group of mice was injected with the compound to be tested via the tail vein at a dose of 1 mg/kg. The other group of mice was administered the compound to be tested via single-dose oral administration at a dose of 3 mg/kg. In the tail vein injection group, blood was collected from the saphenous vein at 5 minutes, 15 minutes, 30 minutes, 1 hour, 2 hours, 4 hours, 8 hours, and 24 hours post-administration. In the single-dose oral administration group, blood was collected at 15 minutes, 30 minutes, 1 hour, 2 hours, 4 hours, 8 hours, and 24 hours post-administration. The collected blood was placed in an EDTA-K2 anticoagulant tube, and 30 μL of whole blood was collected at each time point. Immediately after collection, blood samples were placed on wet ice for centrifugation. Samples would be centrifuged (maintained at 4600 rpm for 5 minutes at 4° C.) within 30 minutes to obtain plasma. The plasma sample was placed into a test tube (a target of 12 to 20 μL) for analysis. […] of plasma was added with 5 μL of MeOH, then added with 200 μL of MeOH/ACN solution containing 5 ng/mL of ISTD (Terfenadine), mixed well with shaking, and centrifuged at 4000 rpm for 15 minutes. The supernatant was diluted 5-fold with MeOH/water (1:1, v/v, 0.1% FA), and loaded to LC-MS/MS for quantification of plasma concentration by analytical methods and calculation of pharmacokinetic parameters.

[2] = target: PARP2 (Homo sapiens (Human), UniProt Q9UGN5); assay: PARP2 enzymatic activity assay; assay type: biochemical; conditions: Biotin-NAD+ 2 μM, 60 minutes
Sequence of PARP2 (Q9UGN5 whole entry): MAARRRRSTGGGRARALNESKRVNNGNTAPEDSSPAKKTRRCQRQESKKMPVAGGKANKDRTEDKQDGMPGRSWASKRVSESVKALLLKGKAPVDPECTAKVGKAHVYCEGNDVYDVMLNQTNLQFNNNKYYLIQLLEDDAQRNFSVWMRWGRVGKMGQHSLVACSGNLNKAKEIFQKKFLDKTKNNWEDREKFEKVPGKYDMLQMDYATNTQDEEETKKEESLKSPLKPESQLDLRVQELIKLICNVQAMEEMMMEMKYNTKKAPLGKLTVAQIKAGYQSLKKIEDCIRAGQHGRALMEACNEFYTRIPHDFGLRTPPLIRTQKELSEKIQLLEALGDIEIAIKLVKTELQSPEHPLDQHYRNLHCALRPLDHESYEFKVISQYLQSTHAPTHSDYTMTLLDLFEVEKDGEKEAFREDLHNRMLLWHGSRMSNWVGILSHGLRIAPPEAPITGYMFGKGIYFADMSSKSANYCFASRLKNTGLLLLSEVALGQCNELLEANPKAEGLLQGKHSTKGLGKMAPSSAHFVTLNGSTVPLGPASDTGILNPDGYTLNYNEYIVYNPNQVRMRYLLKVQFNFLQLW

[3] = test system: MDA-MB-436 cells; assay: Proliferation activity assay of MDA-MB-436 cells (CellTiter-Glo); assay type: cell-based; conditions: 4000 cells seeded, 6 days incubation, read-out: MDA-MB-436 proliferation inhibition IC50
Procedure: Complete culture medium was prepared and mixed thoroughly. The cells were resuscitated and cultured for about two passages to select a cell line in good growth condition. The cell culture flask was removed from the incubator. Cell adherence: the culture medium was aspirated, then the cells were washed once with trypsin to discard the waste liquid, and 3 mL of fresh trypsin was added to the culture flask for digestion. When the cells were loose to be detached from the wall of the flask, 8 mL of complete culture medium was added thereto to stop trypsin digestion and mixed gently. The cell suspension was transferred to a centrifuge tube with a pipette and centrifuged at 1000 rpm for 5 minutes. The supernatant was discarded. An appropriate volume of culture medium was added to the centrifuge tube and pipetted gently to resuspend the cells evenly. The cells were counted using a Vi-Cell XR cell counter. The cell suspension was adjusted to an appropriate concentration. The cell suspension was added to a 96-well plate at 100 µL/well. The details such as cell name, seeding density, and date were labelled, and the culture plate was placed in a CO2 incubator overnight.
The compound to be tested was prepared into a 10 mM stock solution, which was aliquoted and stored in a −20° C. freezer. The compound solution was added to a 96-well plate using HPD300. The plate was incubated in a CO2 incubator for a total of 6 days.
CellTiter-Glo buffer was melted at room temperature. The lyophilized CellTiter-Glo substrate was equilibrated to room temperature. CellTiter-Glo buffer was added to the CellTiter Glo substrate and mixed thoroughly. A cell plate was taken out and equilibrated to room temperature. 100 μL of mixed CellTiter Glo reagent was added to each well, and the mixture was shaken in the dark for 10 minutes, followed by incubation for 20 minutes. The culture plate was placed into an Enspire reading plate, and the luminescence reading results were recorded. […] A pharmacodynamic inhibition rate curve was plotted by using XLFit, and the IC50 value was calculated. The 4-parameter model [fit=(A+((B−A)/(1+((C/x)^D)))] was used.

[4] = target: PARP1 (Homo sapiens (Human), UniProt P09874); assay: PARP1 enzymatic activity assay; assay type: biochemical; conditions: for IC50: final PARP1 0.02 nM, DNA 0.8 nM, NAD+ 3.5 μM, 60 minutes; for PARP1/PARP2 inhibition Selectivity multiple N (N = IC50 (PARP2)/IC50 (PARP1)): ratio IC50 (PARP2)/IC50 (PARP1)
Sequence of PARP1 (P09874 whole entry): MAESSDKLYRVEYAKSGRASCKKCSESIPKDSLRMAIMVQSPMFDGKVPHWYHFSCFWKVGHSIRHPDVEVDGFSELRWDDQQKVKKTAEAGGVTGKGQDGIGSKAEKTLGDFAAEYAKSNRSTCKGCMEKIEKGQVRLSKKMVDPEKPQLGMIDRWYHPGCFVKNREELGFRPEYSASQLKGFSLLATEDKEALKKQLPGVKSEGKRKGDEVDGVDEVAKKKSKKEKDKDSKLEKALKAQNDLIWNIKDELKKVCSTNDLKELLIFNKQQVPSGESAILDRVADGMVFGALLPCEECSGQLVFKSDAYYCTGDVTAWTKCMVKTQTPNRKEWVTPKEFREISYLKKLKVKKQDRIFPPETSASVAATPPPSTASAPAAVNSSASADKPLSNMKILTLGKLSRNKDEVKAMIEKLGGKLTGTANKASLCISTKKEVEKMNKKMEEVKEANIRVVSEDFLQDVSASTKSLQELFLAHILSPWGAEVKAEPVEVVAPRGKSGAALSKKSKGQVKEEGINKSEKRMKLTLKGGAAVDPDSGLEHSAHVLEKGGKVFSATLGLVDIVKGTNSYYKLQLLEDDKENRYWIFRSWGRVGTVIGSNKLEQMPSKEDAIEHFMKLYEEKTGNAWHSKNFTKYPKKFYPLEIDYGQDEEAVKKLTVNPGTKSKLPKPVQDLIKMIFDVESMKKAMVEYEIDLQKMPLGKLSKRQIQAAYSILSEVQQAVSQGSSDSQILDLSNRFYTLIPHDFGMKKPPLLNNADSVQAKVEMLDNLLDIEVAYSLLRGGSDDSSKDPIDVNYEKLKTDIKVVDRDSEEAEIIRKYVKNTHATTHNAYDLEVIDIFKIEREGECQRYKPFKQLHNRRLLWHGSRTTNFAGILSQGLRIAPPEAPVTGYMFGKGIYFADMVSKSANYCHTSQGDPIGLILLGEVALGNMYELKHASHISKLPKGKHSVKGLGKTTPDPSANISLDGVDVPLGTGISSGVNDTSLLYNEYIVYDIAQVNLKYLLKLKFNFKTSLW
Procedure: 2) After the coating was completed, the coating buffer was discarded.
After washing, the blocking buffer was discarded.
4) 1000× compound was prepared. 1 μL of compound was transferred to a 96-well plate containing 199 μL of reaction buffer (50 mM Tris-HCl (pH 7.5), 0.005% Tween-20, 0.01% BSA) and mixed well.
5) 25/10×PARP1-DNA solution was prepared with reaction buffer.
6) 25/10×NAD+ solution was prepared with reaction buffer.
8) Primary antibody was 2000-fold diluted with the blocking buffer. 20 μL of primary antibody was added to the reaction plate, which was incubated at room temperature for 1.5 hours.
9) The primary antibody was discarded.
10) Secondary antibody was 2000-fold diluted with the blocking buffer.
11) The secondary antibody was discarded.
The chemiluminescence value RLU was read with Envision.

[5] = Homo sapiens, MDA-MB-436, 144 h

SMILES | Clearance [1] [mL/h/kg] | half-life [1] [h] | Half-life t1/2 [1] [h] | IC50 ([2]; final PARP2 […]) [nM] | IC50 [3] [nM] | IC50 [4] [nM] | PARP1/PARP2 inhibition Selectivity multiple N (N = IC50 (PARP2)/IC50 (PARP1)) [4] | IC50 ([2]; final PARP2 1.5 nM) [nM] | IC50 [3, 5] [nM]
CCc1cc2ncc(CN3CCN(c4ccc(C(=O)NC)nc4)CC3)cc2[nH]c1=O [AZD5305, reference compound] | 10.3 | 8.04 |  |  |  |  |  |  | 
CCc1cc2ncc(CN3CCN(c4ccc(C(=O)NC)nc4)[C@@H]4CC[C@@H]43)cc2[nH]c1=O [Example 2-2, 5-((1R,6S)-5-((7-ethyl-6-carbonyl-5,6-dihydro-1,5-naphthyridin-3-yl)methyl)-2,5-diazabicyclo[4.2.0]octan-2-yl)-N-methylpyridine-2-carboxamide] | 1.74 |  | 57.9 | 46.4 | 1 | 0.6 | 71 |  | 
CNC(=O)c1ccc(N2CCN(Cc3cnc4c5c(c(=O)[nH]c4c3)CCC5)[C@H]3CC[C@H]32)cn1 [Example 12-2, N-methyl-5-[(1R,6S)-5-((6-oxo-5H,7H,8H,9H-cyclopenta[c][1,5]naphthyridin-3-yl)methyl)-2,5-diazabicyclo[4.2.0]octan-2-yl]pyridine-2-carboxamide] | 1.92 | 41.3 |  |  |  | 0.5 | 120 | 60 | 2
CCc1cc2ncc(CN3CCN(c4ccc(-c5nnc(C)[nH]5)nc4)[C@@H]4CC[C@@H]43)cc2[nH]c1=O [Example 29-2] |  |  |  | 30 | 13 | 0.7 | 43 |  | 
CNC(=O)c1ccc(N2CCN(Cc3cnc4cc(C(F)(F)F)c(=O)[nH]c4c3)[C@H]3CC[C@H]32)cn1 [Example 30-2, N-methyl-5-((1R,6S)-5-((6-oxo-7-(trifluoromethyl)-5,6-dihydro-1,5-naphthyridin-3-yl)methyl)-2,5-diazabicyclo[4.2.0]octan-2-yl)picolinamide] | 1.62 | 47.6 |  |  |  | 1.2 | 39 | 47 | 1
CNC(=O)c1ccc(N2CCN(Cc3cnc4c5c(c(=O)[nH]c4c3)OCCC5)[C@@H]3CC[C@@H]32)cn1 [Example 31-1, N-methyl-5-((1S,6R)-5-((6-oxo-6,8,9,10-tetrahydro-5H-pyrano[2,3-c][1,5]naphthyridin-3-yl)methyl)-2,5-diazabicyclo[4.2.0]octan-2-yl)picolinamide] |  |  |  |  |  | 0.3 | 303 | 91 | 3
